# From patent US20250145665A1, “MACROCYCLIC PEPTIDES USEFUL AS MODULATORS OF TNF ALPHA” (Bristol-Myers Squibb Company, priority 2023, published 2025)
# Starred links: 1 amine or outer side, 2 acyl side, 3 side chain; linkers in the order of their positions; H or OH if unused. Positions of bridges follow the written chain, without caps; N, C: chain ends. Non-standard residues stand in square brackets, D forms with d. Residues, ends and D or L forms follow the SMILES beside them. *: point of attachment. Bip(4'-(3-HOOC-benzamido)) = N[C@@H](Cc1ccc(-c2ccc(NC(=O)c3cccc(C(=O)O)c3)cc2)cc1)C(=O)O; X5 = Cn1nc(C(=O)Nc2ccc(-c3ccc(C[C@H](N[*:1])C(=O)[*:2])cc3)cc2)c2ccccc21; Bip(4'-NH) = O=C([C@H](Cc1ccc(-c2ccc(N[*:3])cc2)cc1)N[*:1])[*:2]; Bip(4'-CONHMe) = CNC(=O)c1ccc(-c2ccc(C[C@H](N)C(=O)O)cc2)cc1; Bip(4'-COOH) = N[C@@H](Cc1ccc(-c2ccc(C(=O)O)cc2)cc1)C(=O)O; Bip(4'-NHAc) = CC(=O)Nc1ccc(-c2ccc(C[C@H](N)C(=O)O)cc2)cc1; X4 = N=C(NCCCc1cccc(N)c1)NCCC[C@@H](N[*:1])C(=O)[*:2]; X6 = N=C(NCCCCC(N)=O)NCCC[C@@H](N[*:1])C(=O)[*:2]; Ala(morpholin-4-yl) = N[C@@H](CN1CCOCC1)C(=O)O; Benzoyl(4-OCH2COOH) = O=C(O)COc1ccc(C(=O)*)cc1; X12 = N=C(NCCO)NCCC[C@@H](N[*:1])C(=O)[*:2]; Bip = N[C@@H](Cc1ccc(-c2ccccc2)cc1)C(=O)O; X75 = O=C(O)Cn1ccc2c(C(=O)*)cccc21; Tic = O=C(O)[C@@H]1Cc2ccccc2CN1; Cha = N[C@@H](CC1CCCCC1)C(=O)O; Tle = CC(C)(C)[C@H](N)C(=O)O; Sar = CNCC(=O)O
# Molecular target: TNFα (Homo sapiens, UniProt P01375)
# Sequence (P01375 77-233 limits assumed): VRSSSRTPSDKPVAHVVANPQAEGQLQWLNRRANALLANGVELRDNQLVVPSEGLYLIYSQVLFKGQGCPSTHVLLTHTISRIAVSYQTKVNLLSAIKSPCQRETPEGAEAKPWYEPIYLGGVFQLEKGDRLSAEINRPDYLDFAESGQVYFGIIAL
# Assay: TNF-Induced HEK-Blue Assay
# Assay type: cell-based
# Details: HEK-Blue-CD40L cells, NF-kB-driven secreted alkaline phosphatase reporter; TNFα 0.5 ng/ml; 18 h; read-out: TNF induced HEK-Blue assay IC50 value
row,IC50 [nM],Structure (SMILES)
1,< 50,CC(C)C[C@@H]1NC(=O)[C@H](CCCNC(=N)N)NC(=O)[C@H](C(C)C)NC(=O)[C@@H]2CCCN2C(=O)[C@H](C(C)C)NC(=O)[C@@H](CCCNC(=N)N)NC(=O)[C@H](CC(=O)O)NC(=O)[C@@H]2CCCN2C(=O)CN(C)C(=O)[C@H](Cc2ccc(-c3ccc(NC(=O)c4cccc5c4ccn5CC(=O)O)cc3)cc2)NC(=O)[C@H](Cc2ccc(-c3ccccc3)cc2)NC(=O)[C@H](CN2CCOCC2)NC(=O)CSC[C@@H](C(=O)NCC(N)=O)NC1=O [Example 382] ({CH2CO}-[Ala(morpholin-4-yl)][Bip][Bip(4'-NH)](X75)[Sar]PD[dR]VPVRLCG-NH2; thioether N-13)
2,50 to 200,CC(C)C[C@@H]1NC(=O)[C@H](Cc2ccc(O)cc2)NC(=O)[C@H](C(C)C)NC(=O)[C@@H]2Cc3ccccc3CN2C(=O)[C@H](C(C)C)NC(=O)[C@@H](CCCNC(=N)N)NC(=O)[C@H](CC(=O)O)NC(=O)[C@@H]2CCCN2C(=O)CN(C)C(=O)[C@H](Cc2ccc(-c3ccc(NC(=O)c4cccc(C(=O)O)c4)cc3)cc2)NC(=O)[C@H](Cc2ccc(-c3ccc(C(=O)O)cc3)cc2)NC(=O)[C@H](CC2CCCCC2)NC(=O)CSC[C@@H](C(=O)NCC(N)=O)NC1=O [Example 384] ({CH2CO}-[Cha][Bip(4'-COOH)][Bip(4'-(3-HOOC-benzamido))][Sar]PD[dR]V[Tic]VYLCG-NH2; thioether N-13)
3,< 50,CC[C@H](C)[C@@H]1NC(=O)[C@@H]2CCCN2C(=O)[C@H]([C@@H](C)CC)NC(=O)[C@@H](CCCNC(=N)N)NC(=O)[C@H](CC(=O)O)NC(=O)[C@H](Cc2ccccc2)NC(=O)CN(C)C(=O)[C@H](Cc2ccc(-c3ccc(NC(C)=O)cc3)cc2)NC(=O)[C@H](Cc2ccc(-c3ccc(C(=O)NC)cc3)cc2)NC(=O)[C@H](C(C)(C)C)NC(=O)CSC[C@@H](C(=O)NCC(N)=O)NC(=O)[C@H](CC(C)C)NC(=O)[C@H](Cc2cnc[nH]2)NC1=O [Example 385] ({CH2CO}-[Tle][Bip(4'-CONHMe)][Bip(4'-NHAc)][Sar]FD[dR]IPIHLCG-NH2; thioether N-13)
4,50 to 200,CNC(=O)c1ccc(-c2ccc(C[C@@H]3NC(=O)[C@H](CC4CCCCC4)NC(=O)CSC[C@@H](C(=O)NCC(N)=O)NC(=O)[C@H](CC(C)C)NC(=O)[C@H](Cc4ccc(O)cc4)NC(=O)[C@H](C(C)C)NC(=O)[C@@H]4Cc5ccccc5CN4C(=O)[C@H](C(C)C)NC(=O)[C@@H](CCCNC(=N)N)NC(=O)[C@H](CC(=O)O)NC(=O)[C@@H]4CCCN4C(=O)CN(C)C(=O)[C@H](Cc4ccc(-c5ccc(NC(C)=O)cc5)cc4)NC3=O)cc2)cc1 [Example 386] ({CH2CO}-[Cha][Bip(4'-CONHMe)][Bip(4'-NHAc)][Sar]PD[dR]V[Tic]VYLCG-NH2; thioether N-13)
5,< 50,CC[C@H](C)[C@@H]1NC(=O)[C@@H](CCCNC(=N)N)NC(=O)[C@H](CC(=O)O)NC(=O)[C@H](Cc2cnc[nH]2)NC(=O)CN(C)C(=O)[C@H](Cc2ccc(-c3ccc(NC(=O)c4ccc(OCC(=O)O)cc4)cc3)cc2)NC(=O)[C@H](Cc2ccc(-c3ccc(C(=O)NC)cc3)cc2)NC(=O)[C@H](CC2CCCCC2)NC(=O)CSC[C@@H](C(=O)NCC(N)=O)NC(=O)[C@H](CC(C)C)NC(=O)[C@H](Cc2cnc[nH]2)NC(=O)[C@H](C(C)C)NC(=O)[C@@H]2CCCN2C1=O [Example 395] ({CH2CO}-[Cha][Bip(4'-CONHMe)][Bip(4'-NH)](Benzoyl(4-OCH2COOH))[Sar]HD[dR]IPVHLCG-NH2; thioether N-13)

row,Structure (SMILES),IC50 [nM]
1,CC(C)C[C@@H]1NC(=O)[C@H](CCCNC(=N)N)NC(=O)[C@H](C(C)C)NC(=O)[C@@H]2CCCN2C(=O)[C@H](C(C)C)NC(=O)[C@@H](CCCNC(=N)NCCO)NC(=O)[C@H](CC(=O)O)NC(=O)[C@@H]2CCCN2C(=O)CN(C)C(=O)[C@H](Cc2ccc(-c3ccc(NC(=O)c4nn(C)c5ccccc45)cc3)cc2)NC(=O)[C@H](Cc2ccc(-c3ccccc3)cc2)NC(=O)[C@H](CN2CCOCC2)NC(=O)CSC[C@@H](C(=O)NCC(N)=O)NC1=O [Example 388] ({CH2CO}-[Ala(morpholin-4-yl)][Bip][X5][Sar]PD[X12]VPVRLCG-NH2; thioether N-13),< 50
2,CC(C)C[C@@H]1NC(=O)[C@H](CCCNC(=N)N)NC(=O)[C@H](C(C)C)NC(=O)[C@@H]2CCCN2C(=O)[C@H](C(C)C)NC(=O)[C@@H](CCCNC(=N)NCCCCC(N)=O)NC(=O)[C@H](CC(=O)O)NC(=O)[C@@H]2CCCN2C(=O)CN(C)C(=O)[C@H](Cc2ccc(-c3ccc(NC(=O)c4nn(C)c5ccccc45)cc3)cc2)NC(=O)[C@H](Cc2ccc(-c3ccccc3)cc2)NC(=O)[C@H](CN2CCOCC2)NC(=O)CSC[C@@H](C(=O)NCC(N)=O)NC1=O [Example 392] ({CH2CO}-[Ala(morpholin-4-yl)][Bip][X5][Sar]PD[X6]VPVRLCG-NH2; thioether N-13),50 to 200
3,CC(C)C[C@@H]1NC(=O)[C@H](CCCNC(=N)N)NC(=O)[C@H](C(C)C)NC(=O)[C@@H]2CCCN2C(=O)[C@H](C(C)C)NC(=O)[C@@H](CCCNC(=N)NCCCc2cccc(N)c2)NC(=O)[C@H](CC(=O)O)NC(=O)[C@@H]2CCCN2C(=O)CN(C)C(=O)[C@H](Cc2ccc(-c3ccc(NC(=O)c4nn(C)c5ccccc45)cc3)cc2)NC(=O)[C@H](Cc2ccc(-c3ccccc3)cc2)NC(=O)[C@H](CN2CCOCC2)NC(=O)CSC[C@@H](C(=O)NCC(N)=O)NC1=O [Example 394] ({CH2CO}-[Ala(morpholin-4-yl)][Bip][X5][Sar]PD[X4]VPVRLCG-NH2; thioether N-13),50 to 200
